Where two headings read alike, the source gives them in different places. Marks after values point to notes of the source that are not given here.
How the values were obtained:
[1] = tested on: cancer; experiment: Case records of selected patients, monochemotherapy; format: in vivo, human
Text: The following are abstracts from the case records of selected patients, who received dimethylaminoarglabin hydrochloride monochemotherapy.

[2] = tested on: M-1 Sarcoma; experiment: Inhibition of tumor growth in implanted tumors; format: in vivo, mice and rats; settings: dose 30 mg/kg
[3] = tested on: Sarcoma-45 resistant to prospidine; experiment: Inhibition of growth of resistant tumour strains; format: in vivo, rats; settings: dose 50 mg/kg
[4] = tested on: marrow cells; experiment: Viability of primary cultures of normal cells, trypan blue exclusion; format: cell-based, mouse; settings: 18 hours
Protocol: (§1) Mouse mastocytoma (P-815), myeloma (Z-P3x63Ag8.653 and Pai) and human erthyroleukemia (K-562) cell lines were used. Primary cultures of normal mouse hepatocytes were isolated from mouse liver using collagenase. Mouse splenocytes were isolated using a glass homogenizer. Marrow cells were obtained by washing the bone marrow. See, for example, Shears, S. B. and Kirk, C. J. (1984), Biochem. J. 219:375-382.
(§2) Cells were cultured in RPMI-1640 medium supplemented with 10% fetal calf serum, 100 mM L-glutamine and 50 μg/ml gentamycin at 37° C. under 5% CO2. Cells were seeded into 24-well plates at a density of 50,000 cells/well and grown until near confluency, approximately 2 days, then transferred to 96-well plates at the same density. […] Viability of the cells was determined by trypan blue exclusion. […] Approximately 25% of K-562 and X-653 cells survived at a concentration of 12 μg/ml, and the same proportion of P-815 cells survived at a concentration of about 25 μg/ml.
(§3) Viability was measured by trypan blue exclusion. […] At a concentration of 320 μg/ml, the number of viable splenocytes was reduced by 50% in comparison to the control. At concentrations of 640 μg/ml and 1280 μg/ml, 40% and 10%, respectively, of the splenocytes were still viable. At these same concentrations, approximately 50% and 25% of hepatocytes were still viable. Marrow cells were more sensitive to dimethylaminoarglabin hydrochloride. At a concentration of 160 μg/ml, only about 50% of the marrow cells were still viable. Increasing the concentration to 320 μg/ml reduced the viability to about 25%.

[5] = tested on: splenocytes; experiment: as above; format: cell-based, mouse; settings: 18 hours
Protocol: as §1, §2, §3

[6] = tested on: hepatocytes; experiment: as above; format: cell-based, mouse; settings: 18 hours
Protocol: as §1, §2, §3

[7] = tested on: drug resistant metastasis of Pliss' lymphosarcoma; experiment: Model of drug resistant metastasis of Pliss' lymphosarcoma; format: in vivo, rats; settings: alone
[8] = tested on: end-stage (III-IV) cancer; experiment: First clinical trial, 51 patients
Protocol: The patient population was 67.9% male and 32.1% female. […] Intrapleural administration was used for patients with pleurisy. Patients were given a very small dose and monitored for any signs of allergic reaction before proceeding. […] After 30-35 days, the dose was increased to 480 mg per day. […] It was estimated that the daily dose should be about 240-280 mg for typical cases. […] Additional courses of treatment were administered to some patients. Patient condition before treatment was rated on a scale of 1 to 3, where 1 was bedridden, 2 was a significant restriction on activity and 3 retained full activity. Therapeutic result was measured on a scale from 0 to 3, where 0 was no improvement, 1 was insignificant or improvement for less than a month, 2 was considerable improvement (25-50% reduction in tumor size) and 3 was sharp improvement (50-100% reduction in tumor size).

[9] = tested on: immune system; experiment: Immunity of rats with initial and prospidin resistant tumors with metastases; format: in vivo; settings: sarcolysin, cisplatin
[10] = tested on: Alveolar Cancer of the liver; experiment: Inhibition of tumor growth in implanted tumors; format: in vivo, mice and rats; settings: dose 50 mg/kg
[11] = in vivo
Protocol: Maximum tolerable doses (MTD) of arglabin and derivatives were determined by daily intraperitoneal administration to rats, guinea pigs or mice and daily intravenous administration to rabbits over a period of five to 20 days.

[12] = tested on: Sarcoma-45 resistant to sarcolysin; experiment: Inhibition of growth of resistant tumour strains; format: in vivo, rats; settings: dose 50 mg/kg
[13] = tested on: Leucemia P-388; experiment: Implanted leukemia, inhibition / survival; format: in vivo, mice and rats
[14] = tested on: L-1210; experiment: Implanted leukemia, survival; format: in vivo, mice and rats; settings: dose 30 mg/kg
[15] = tested on: Sarcoma-45; experiment: Inhibition of tumor growth in implanted tumors; format: in vivo, rats
[16] = tested on: immune system; experiment: Immune system modulation in mice immunodepressed with cyclophosphamide; format: in vivo; settings: 10 mg/kg for 10 days
Protocol: Mice were immunodepressed by administration of 200 mg/kg of cyclophosphamide. […] The Hemagglutination test and delayed-type hypersensitivity reaction were determined before and after administration of drug.
The increased number of T-lymphocytes was accompanied by an elevation in the T-helper subpopulation as well as the T-suppressor subpopulation, although to a lesser extent.

[17] = Solubility in water; format: physicochemical
[18] = LD50, intraperitoneal injection; format: in vivo; settings: 2% solution in DMSO
Text: Overall, the compounds in this family have low toxicity and are tolerated at dosages exceeding the therapeutic dosage.

[19] = tested on: immune system; experiment: Indices of patients' immunity, rozette forming and phagocytosis methods (Table X); format: in vivo, human
Protocol: The indices of immune system were determined using rozette forming and phagocytosis methods. […] Eleven indices of cellular and humoral immunity were measured from each patient in order to evaluate immune status. The following indices were determined on 0.05 ml of peripheral blood: absolute and relative amount of T- and B-lymphocytes, amount of non-differentiated “zero” cells, adhesion and phagocyte activity of neutrophils, hemogram, level of serum immunoglobulins. Indices were determined before treatment, on days 2, 5 and 14 of treatment, and after treatment.
Mean values of immunological indices were evaluated with regression analysis. Functional conditions of the immune system were estimated using integral indices such as a mean intensity (correlation) expressed in relative units.

[20] = tested on: Geren's carcinosarcoma; experiment: Inhibition of tumor growth in implanted tumors; format: in vivo, mice and rats

Compound: CC1=CCC23OC2(C)CCC2C(CN(C)C)C(=O)OC2C13.Cl (stereo not shown) [Dimethylaminoarglabin hydrochloride]
- condition of patient with brain tumor ([1]; Patient A, case number 543, after the first course): condition was stabilized
- infiltration of the right breast decreased ([1]; Patient M, case number 305, breast cancer, 5 courses): 50%
- outcome of liver cancer ([1]; patient, case number N2225, embryonal carcinoma of the liver, 120 mg IV daily): complete recovery
- Inhibition of Tumour Growth, % - M-1 Sarcoma [2]: 83.5** %
- Inhibition of Tumour Strains Growth, % - Resistant Forms - Sarcoma-45 to prospidine [3]: 87.4*** %
- average time of retention (rat, in vivo): about 67 hours
- brain tissue concentration (rat, in vivo): 23.9 µg/g
- concentration in the liver (rat, in vivo): 228.6 µg/g
- maximum lung concentration (rat, in vivo): 149.4 µg/g
- maximum spleen concentration (rat, in vivo): 159 µg/g
- penetration through the blood-brain barrier (rat, in vivo): able to penetrate through the blood-brain barrier
- total clearance (rat, in vivo): 0.5 mL/min
- maximal level in the blood serum (rat, in vivo, iv, 2 mg/kg): 30 µg/mL
- time of maximal level in the blood serum (rat, in vivo, iv, 2 mg/kg): within one hour
- volume of distribution (rat, in vivo, iv, 2 mg/kg): large
- kidney concentration (rats, 24 hours): 56.6 µg/g
- concentration in skeletal muscle (rats, within three hours after administration): 176.4 µg/g
- marrow cells still viable ([4]; 160 μg/ml): approximately 50%
- marrow cells viability ([4]; 320 μg/ml): about 25%
- number of viable splenocytes reduced in comparison to the control ([5]; 320 μg/ml): 50%
- splenocytes still viable ([5]; 640 μg/ml): 40%
- splenocytes still viable ([5]; 1280 μg/ml): 10%
- hepatocytes still viable ([6]; 640 μg/ml): approximately 50%
- hepatocytes still viable ([6]; 1280 μg/ml): about 25%
- duration of life in comparison with the control group [7]: 128%
- complaints at high dose ([8]; 480 mg per day): nausea and vomiting
- patients with a considerable improvement ([8]; liver cancer): 55.6%
- patients with a considerable improvement ([8]; lung cancer): about 64%
- patients with a considerable improvement ([8]; ovarian cancer): 66%
- patients with a considerable improvement ([8]; overall): approximately 30%
- Note(s) - decrease in tumor ([8]; patient 47, rectal cancer III stage, suppositories): 50% decrease
- hematopoiesis ([8]; patients): did not suppress hematopoiesis
- toxicity ([8]; patients): little toxicity
- taste reported immediately after administration ([8]; quickly dissipated): bitter taste
- effect on immunodepression caused by cytostatics [9]: softened the immunodepressive effect of cytostatics
- Inhibition of Tumour Growth, % - Alveolar Cancer of the liver [10]: 80.0%
- maximum dosage (MTD) ([11]; guinea pig): 45 mg/kg
- maximum dosage (MTD) ([11]; mouse): 30 mg/kg
- maximum dosage (MTD) ([11]; rabbit): 20 mg/kg
- maximum dosage (MTD) ([11]; rat): 50 mg/kg
- Inhibition of Tumour Strains Growth, % - Resistant Forms - Sarcoma-45 to sarcolysin [12]: 90.1*** %
- Leucemia P-388 PALT - increase in survival ([13]; dose 30 mg/kg): +144%
- Leucemia P-388 PALT - increase in survival ([13]; dose 50 mg/kg): +109.0%
- L-1210 - increase in survival [14]: +60%
- Inhibition of Tumour Growth, % - Sarcoma-45 ([15]; dose 30 mg/kg): 86.5*** %
- Inhibition of Tumour Growth, % - Sarcoma-45 ([15]; dose 50 mg/kg): 83.1** %
- leukopenia and lymphopenia [16]: reduced the leukopenia and lymphopenia
- solubility in water [17]: soluble in water
- LD50 ([18]; mice): 190 to 220 mg/kg
- LD50 ([18]; rats): 280 to 310 mg/kg
- level of non-differentiated "zero" cells ([19]; 2nd-5th day of treatment): increased
- percentage of T-lymphocytes and T-helper lymphocytes ([19]; 2nd-5th day of treatment): reduced considerably
- immunoglobulins A, M and G ([19]; after the treatment): increased amount
- Inhibition of Tumour Growth, % - Geren's carcinosarcoma ([20]; dose 30 mg/kg): 80.1%
- Inhibition of Tumour Growth, % - Geren's carcinosarcoma ([20]; dose 50 mg/kg): 83.3* %

From patent US6770673B1, “Therapeutic uses of arglabin in combination with other chemotherapy agents” (priority 1997, dated 2004)
